# Data taken from patent publication US20230233569A1 (Revolution Medicines, Inc., priority 2020, published 2023).
# Several values for one entry are separate records, joined by “and”; a condition that tells them apart may be missing. Equal values may be shown once. Read-outs that look alike come from different tables or passages of the source.
# What was measured:
# NRAS Q61K = NRAS Q61K (Homo sapiens, UniProt P01111+P62937, Q61K); assay: Disruption of BRAF RBD interaction with Ras (FRET / MOA assay, with Cyclophilin A); type: biochemical; conditions: NRAS Q61K; read-out: NRAS Q61K FRET data IC50
# NRAS Q61K, sequence (P01111 whole entry Q61K): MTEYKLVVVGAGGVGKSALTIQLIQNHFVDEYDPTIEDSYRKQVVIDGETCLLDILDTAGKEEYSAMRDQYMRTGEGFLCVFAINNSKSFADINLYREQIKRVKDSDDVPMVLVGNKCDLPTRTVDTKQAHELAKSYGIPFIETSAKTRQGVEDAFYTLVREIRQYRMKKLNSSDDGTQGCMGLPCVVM
# NRAS Q61K, sequence (P62937 whole entry): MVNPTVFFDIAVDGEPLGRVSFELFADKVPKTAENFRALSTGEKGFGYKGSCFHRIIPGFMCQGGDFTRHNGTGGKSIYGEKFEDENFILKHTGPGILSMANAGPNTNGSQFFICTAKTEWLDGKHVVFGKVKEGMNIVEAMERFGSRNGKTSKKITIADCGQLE
# Method in brief: (§1)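 IC50 reflects compound-driven Ras:Cyclophilin A ternary complex displacing BRAF RBD, read as lowered TR-FRET ratio relative to DMSO after Eu anti-His (10 nM) and APC anti-GST (50 nM) detection for 1.5 h. Prior incubation 3 h, 25° C, with 12.5 nM GMPPNP-loaded Ras, 50 nM BRAF RBD, 25 μM Cyclophilin A; top compound 30 μM.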
# NRAS Q61R = NRAS Q61R (Homo sapiens, UniProt P01111+P62937, Q61R); assay: as above; type: biochemical; conditions: NRAS Q61R; read-out: NRAS Q61R FRET data IC50
# NRAS Q61R, sequence (P01111 whole entry Q61R): as the sequence (P01111 whole entry Q61K) above, with K61R counted along it
# NRAS Q61R, sequence (P62937 whole entry): as the sequence (P62937 whole entry) above
# Method in brief: as §1
# KRAS Q61H = KRAS Q61H (Homo sapiens, UniProt P01116+P62937, Q61H); assay: as above; type: biochemical; conditions: KRAS Q61H; read-out: KRAS Q61H FRET data IC50
# KRAS Q61H, sequence (P01116 1-169 isoform P01116-2 Q61H limits assumed): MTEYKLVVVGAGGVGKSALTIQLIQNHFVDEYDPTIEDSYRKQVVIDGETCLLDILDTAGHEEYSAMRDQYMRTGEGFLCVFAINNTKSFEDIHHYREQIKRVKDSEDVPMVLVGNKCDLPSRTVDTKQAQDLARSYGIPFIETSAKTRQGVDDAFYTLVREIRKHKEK
# KRAS Q61H, sequence (P62937 whole entry): as the sequence (P62937 whole entry) above
# Method in brief: as §1
# NCI-H358 (K-Ras G12C) = assay: CellTiter-Glo cell viability assay, 5-day treatment; type: cell-based; conditions: Homo sapiens, NCI-H358, H358, K-Ras G12C; read-out: Additional H358 Cell Viability assay data (K-Ras G12C, IC50)
# Method in brief: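 Five-day compound treatment of plated cells; luminescent read after ~30 min at RT. Percent-of-DMSO data fit to a four-parameter logistic model.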
# KRAS G12V = KRAS G12V (Homo sapiens, UniProt P01116+P62937, G12V); assay: Disruption of BRAF RBD interaction with Ras (FRET / MOA assay, with Cyclophilin A); type: biochemical
# KRAS G12V, sequence (P01116 1-169 isoform P01116-2 G12V limits assumed): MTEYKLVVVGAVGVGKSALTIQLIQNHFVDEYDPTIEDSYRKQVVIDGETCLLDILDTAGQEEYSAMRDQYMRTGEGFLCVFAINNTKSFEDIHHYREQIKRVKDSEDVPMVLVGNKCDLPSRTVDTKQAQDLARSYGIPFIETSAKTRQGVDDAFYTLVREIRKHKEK
# KRAS G12V, sequence (P62937 whole entry): as the sequence (P62937 whole entry) above
# Method in brief: (§2)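 Biochemical TR-FRET disruption assay: nucleotide-loaded K-Ras with Cyclophilin A and a BRAF RBD construct, compound titrated over 10 points from 30 μM (final).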
# KRAS G13C = KRAS G13C (Homo sapiens, UniProt P01116+P62937, G13C); assay: as above; type: biochemical; conditions: KRAS G13C; read-out: KRAS G13C FRET data IC50
# KRAS G13C, sequence (P01116 1-169 isoform P01116-2 G13C): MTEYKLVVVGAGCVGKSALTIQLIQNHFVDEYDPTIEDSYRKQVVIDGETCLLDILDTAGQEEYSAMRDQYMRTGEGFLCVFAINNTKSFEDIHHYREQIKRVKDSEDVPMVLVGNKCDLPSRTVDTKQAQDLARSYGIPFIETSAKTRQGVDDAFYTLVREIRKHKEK
# KRAS G13C, sequence (P62937 whole entry): as the sequence (P62937 whole entry) above
# Method in brief: as §2
# KRAS G12S = KRAS G12S (Homo sapiens, UniProt P01116+P62937, G12S); assay: as above; type: biochemical
# KRAS G12S, sequence (P01116 1-169 isoform P01116-2 G12S limits assumed): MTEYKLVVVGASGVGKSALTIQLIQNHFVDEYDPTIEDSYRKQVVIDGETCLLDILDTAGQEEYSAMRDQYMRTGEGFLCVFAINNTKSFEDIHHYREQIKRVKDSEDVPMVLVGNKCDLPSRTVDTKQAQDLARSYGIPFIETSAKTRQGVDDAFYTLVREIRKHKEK
# KRAS G12S, sequence (P62937 whole entry): as the sequence (P62937 whole entry) above
# Method in brief: as §2
# NRAS G12C = NRAS G12C (Homo sapiens, UniProt P01111+P62937, G12C); assay: as above; type: biochemical
# NRAS G12C, sequence (P01111 whole entry G12C): as the sequence (P01111 whole entry Q61K) above, with G12C, K61Q counted along it
# NRAS G12C, sequence (P62937 whole entry): as the sequence (P62937 whole entry) above
# KRAS G12C = KRAS G12C (Homo sapiens, UniProt P01116+P62937, G12C); assay: as above; type: biochemical
# KRAS G12C, sequence (P01116 1-169 isoform P01116-2 G12C): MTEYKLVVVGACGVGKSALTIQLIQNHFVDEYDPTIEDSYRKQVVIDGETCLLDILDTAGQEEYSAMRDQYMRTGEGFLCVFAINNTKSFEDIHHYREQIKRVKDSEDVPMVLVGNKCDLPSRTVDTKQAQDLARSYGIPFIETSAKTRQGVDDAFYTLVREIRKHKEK
# KRAS G12C, sequence (P62937 whole entry): as the sequence (P62937 whole entry) above
# Method in brief: as §2
# KRAS WT = KRAS WT (Homo sapiens, UniProt P01116+P62937); assay: as above; type: biochemical
# KRAS WT, sequence (P01116 1-169 isoform P01116-2 limits assumed): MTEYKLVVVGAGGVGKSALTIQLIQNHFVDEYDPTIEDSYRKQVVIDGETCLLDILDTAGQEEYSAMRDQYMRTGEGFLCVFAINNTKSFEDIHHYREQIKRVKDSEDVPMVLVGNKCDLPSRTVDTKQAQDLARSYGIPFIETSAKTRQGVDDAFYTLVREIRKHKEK
# KRAS WT, sequence (P62937 whole entry): as the sequence (P62937 whole entry) above
# Method in brief: as §2
# KRAS G12D = KRAS G12D (Homo sapiens, UniProt P01116+P62937, G12D); assay: as above; type: biochemical; conditions: read-out: KRAS G12D FRET data, IC50
# KRAS G12D, sequence (P01116 1-169 isoform P01116-2 G12D limits assumed): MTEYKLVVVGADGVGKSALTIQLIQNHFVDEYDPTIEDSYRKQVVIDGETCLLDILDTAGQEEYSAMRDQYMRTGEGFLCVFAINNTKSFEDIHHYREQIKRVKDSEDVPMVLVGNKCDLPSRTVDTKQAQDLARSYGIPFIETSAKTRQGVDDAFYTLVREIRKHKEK
# KRAS G12D, sequence (P62937 whole entry): as the sequence (P62937 whole entry) above
# Method in brief: as §2
# KRAS G13D = KRAS G13D (Homo sapiens, UniProt P01116+P62937, G13D); assay: as above; type: biochemical
# KRAS G13D, sequence (P01116 1-169 isoform P01116-2 G13D limits assumed): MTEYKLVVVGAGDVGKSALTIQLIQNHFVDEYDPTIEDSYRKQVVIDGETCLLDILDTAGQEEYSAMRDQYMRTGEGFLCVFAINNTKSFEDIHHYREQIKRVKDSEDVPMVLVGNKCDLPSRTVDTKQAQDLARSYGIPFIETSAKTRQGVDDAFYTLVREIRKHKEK
# KRAS G13D, sequence (P62937 whole entry): as the sequence (P62937 whole entry) above
# Method in brief: as §2
# [1] = KRAS G12V, read-out: KRAS G12V FRET data IC50
# [2] = read-out: KRAS G12S FRET data, IC50
# [3] = NRAS G12C, read-out: NRAS G12C FRET data IC50
# [4] = KRAS G12C, read-out: KRAS G12C FRET data IC50
# [5] = KRAS WT, read-out: KRAS WT FRET data IC50
# [6] = KRAS G13D, read-out: KRAS G13D FRET data IC50
Compound,IC50 (NRAS Q61K) [nM],IC50 (NRAS Q61R) [nM],IC50 (KRAS Q61H) [nM],IC50 (NCI-H358 (K-Ras G12C)) [nM],IC50 (KRAS G12V; [1]) [nM],IC50 (KRAS G13C),IC50 (KRAS G12S; [2]) [nM],IC50 (NRAS G12C; [3]) [nM],IC50 (KRAS G12C; [4]) [nM],IC50 (KRAS WT; [5]) [nM],IC50 (KRAS G12D),IC50 (KRAS G13D; [6]) [nM],"IC50 (KRAS G12V; KRAS G12V FRET data IC50, KRAS G12V) [nM]","IC50 (KRAS G12S; KRAS G12S FRET data, IC50) [nM]","IC50 (NRAS G12C; NRAS G12C FRET data IC50, NRAS G12C)","IC50 (KRAS G12C; KRAS G12C FRET data IC50, KRAS G12C)","IC50 (KRAS WT; KRAS WT FRET data IC50, KRAS WT) [nM]","IC50 (KRAS G13D; KRAS G13D FRET data IC50, KRAS G13D)"
"C=CC(=O)N1CC(OC[C@H](C(=O)N[C@H]2Cc3cc(F)cc(c3)-c3ccc4c(c3)c(c(-c3cccnc3[C@H](C)OC)n4CC)CC(C)(C)COC(=O)[C@@H]3CCCN(N3)C2=O)C(C)C)C1 (atropisomer, axis not shown) [Example A725]",1000 to 10000,1000 to 10000,100 to 1000,10 to 100,1000 to 10000,100 to 1000 nM,1000 to 10000,100 to 1000,100 to 1000,1000 to 10000,> 10000 nM,1000 to 10000,–,–,–,–,–,–
"C=CC(=O)N1CC[C@@H](N(C)C(=O)N(C)[C@H](C(=O)N[C@H]2Cc3nc(cs3)-c3ccc4c(c3)c(c(-c3cccnc3[C@H](C)OC)n4CC(F)(F)F)CC(C)(C)COC(=O)[C@@H]3CCCN(N3)C2=O)C(C)C)C1 (atropisomer, axis not shown) [Example A728]",100 to 1000,100 to 1000,100 to 1000,10 to 100,100 to 1000,100 to 1000 nM,100 to 1000,100 to 1000,100 to 1000,100 to 1000,1000 to 10000 nM,1000 to 10000,–,–,–,–,–,–
"C=CC(=O)N1CC[C@@]2(CCN2C(=O)N(C)[C@H](C(=O)N[C@H]2Cc3nc(cs3)-c3ccc4c(c3)c(c(-c3cccnc3[C@H](C)OC)n4CC)CC(C)(C)COC(=O)C3CCCN(N3)C2=O)N(C)C)C1 (single isomer, unassigned) [Example A661]",10 to 100,100 to 1000,10 to 100,< 10,1000 to 10000,100 to 1000 nM,100 to 1000,10 to 100,10 to 100,100 to 1000,1000 to 10000 nM,100 to 1000,–,–,–,–,–,–
C=CC(=O)N1CC[C@H](C(=O)N(C)[C@H](C(=O)N[C@H]2Cc3cc(O)cc(c3)-c3ccc4c(c3)c(c(-c3cccnc3)n4C3CC3)CC(C)(C)COC(=O)[C@@H]3CCCN(N3)C2=O)C(C)C)C1 [Example A160],> 10000,> 10000,1000 to 10000,100 to 1000,> 10000,> 10000 nM,> 10000,1000 to 10000,100 to 1000,> 10000,> 10000 nM,> 10000,–,–,–,–,–,–
C=CC(=O)N1CC[C@H](C(=O)N(C)[C@H](C(=O)N[C@H]2Cc3cc(O)cc(c3)-c3ccc4c(c3)c(c(-c3cc(C)cnc3[C@H](C)OC)n4CC)CC(C)(C)COC(=O)[C@@H]3CCCN(N3)C2=O)C(C)C)C1 [Example A167],100 to 1000,100 to 1000,10 to 100,10 to 100,1000 to 10000,1000 to 10000 nM and 10 to 100 nM,1000 to 10000,–,–,1000 to 10000,> 10000 nM and 100 to 1000 nM,–,10 to 100,10 to 100,100 to 1000 nM and < 10 nM,100 to 1000 nM and < 10 nM,10 to 100,100 to 1000 nM and > 10000 nM
CC#CC(=O)N1CC[C@H](C(=O)N(C)[C@H](C(=O)N[C@H]2Cc3nc(cs3)-c3ccc4c(c3)c(c(-c3cccnc3[C@H](C)OC)n4CC)CC(C)(C)COC(=O)[C@@H]3CCCN(N3)C2=O)C(C)C)C1 [Example A168],1000 to 10000,1000 to 10000,1000 to 10000,10 to 100,1000 to 10000,1000 to 10000 nM,1000 to 10000,1000 to 10000,100 to 1000,1000 to 10000,> 10000 nM,> 10000,–,–,–,–,–,–
C=CS(=O)(=O)N1CC[C@H](C(=O)N(C)[C@H](C(=O)N[C@H]2Cc3nc(cs3)-c3ccc4c(c3)c(c(-c3cncnc3)n4CC)CC(C)(C)COC(=O)[C@@H]3CCCN(N3)C2=O)C(C)C)C1 [Example A170],> 10000,> 10000,> 10000,100 to 1000,> 10000,1000 to 10000 nM,> 10000,1000 to 10000,1000 to 10000,> 10000,> 10000 nM,> 10000,–,–,–,–,–,–
C=CC(=O)N1CC[C@H](C(=O)N(C)[C@H](C(=O)N[C@H]2Cc3cc(O)cc(c3)-c3ccc4c(c3)c(c(-c3ccnc5c3[C@@H](OC)CC5)n4CC)CC(C)(C)COC(=O)[C@@H]3CCCN(N3)C2=O)C(C)C)C1 [Example A275],100 to 1000,100 to 1000,10 to 100,< 10,10 to 100,10 to 100 nM,10 to 100,10 to 100,10 to 100,100 to 1000,100 to 1000 nM,100 to 1000,–,–,–,–,–,–
C=CC(=O)N1CC[C@@H](N(C)C(=O)N(C)[C@H](C(=O)N[C@H]2Cc3nc(cs3)-c3ccc4c(c3)c(c(-c3cccnc3[C@H](C)OC)n4CC)CC(C)(C)COC(=O)[C@@H]3CCCN(N3)C2=O)C(C)C)C1 [Example A349],10 to 100,100 to 1000,10 to 100,10 to 100,100 to 1000,100 to 1000 nM,100 to 1000,10 to 100,10 to 100,100 to 1000,100 to 1000 nM,100 to 1000,–,–,–,–,–,–
CCn1c(-c2cccnc2[C@H](C)OC)c2c3cc(ccc31)-c1csc(n1)C[C@H](NC(=O)[C@H](C(C)C)N(C)C(=O)N1CC(N(C)C(=O)C#CC(C)(C)N3CCC3)C1)C(=O)N1CCC[C@H](N1)C(=O)OCC(C)(C)C2 [Example A379],100 to 1000,100 to 1000,10 to 100,< 10,100 to 1000,10 to 100 nM,100 to 1000,10 to 100,< 10,100 to 1000,1000 to 10000 nM,100 to 1000,–,–,–,–,–,–
